Measured values: US12163111B2 (priority 2017, dated 2024)
Read-outs that look alike come from different tables or passages of the source.

Assays:
[1] = Source text: Various materials used to manufacture a cell culture device have been tested. One material used for the cell culture device, PEEK, is a strong plastic polymer that is resistant to wear. PEEK is advantageous in drug testing because it is non-absorbent as opposed to, for example, the commonly used poly(dimethylsiloxane) (PDMS), which is known to retain small hydrophobic molecules, such as nicotine. PEEK has been found not to retain nicotine or NNK, another small hydrophobic molecule. Therefore, the cell culture device is suitable for the testing of drug effects on the tissues housed within the cell culture device without risk of the drug concentration (or concentration of its metabolites) being altered by the material.
PEEK has the advantage of not being absorbent towards small molecules. […] This is important since materials used for commercially available plates such as PDMS are known to trap small hydrophobic molecules.

[2] = PDMS plate, 8 hours incubation at 4° C.

Row | Compound | absorbance of PEEK towards the molecule (trapping by the material) [1] | amount of nicotine remaining in the plate ([1]; 8 h) | amount of nicotine remaining in the plate [2]
1 | CN(CCCC(=O)c1cccnc1)N=O [NNK, 4-(methylnitrosamino)-1-(3-pyridyl)-1-butanone] | not trapped by the material | – | –
2 | CN1CCCC1c1cccnc1 (stereo not shown) [nicotine] | not trapped by the material | about 100% | about 35%
